Reference: patent US8932597B2 (priority 2008, dated 2015)

system: anti-M2 human monoclonal antibody Z3G1; type: binding

| Substance | Signal (peptides that bind to Z3G1) |
| --- | --- |
| 1325 (MSLLCEVETPIRNC; epitope peptide) [compound 1325] | 2823 |
| 1326 (MSLLCEVETPIRCE; epitope peptide) [compound 1326] | 2772 |
| 1327 (MSLLCEVETPICNE; epitope peptide) [compound 1327] | 2704 |
| 1328 (MSLLCEVETPCRNE; epitope peptide) [compound 1328] | 2652 |
| 1329 (MSLLCEVETCIRNE; epitope peptide) [compound 1329] | 2589 |
| 1330 (MSLLCEVECPIRNE; epitope peptide) [compound 1330] | 2606 |
| 1331 (MSLLCEVCTPIRNE; epitope peptide) [compound 1331] | 2601 |
| 1333 (MSLLCEVETPIRNE; epitope peptide) [compound 1333] | 2454 |
| 1334 (MSLLCEVGMCLLTEV; epitope peptide) [compound 1334] | 2676 |
| 1335 (MCLLTEVGMSCLTEV; epitope peptide) [compound 1335] | 1869 |
| 1336 (MSLLCEVGMSCLTEV; epitope peptide) [compound 1336] | 2846 |
| 1337 (MCLLTEVGMSLCTEV; epitope peptide) [compound 1337] | 2513 |
| 1338 (MSLLCEVGMSLCTEV; epitope peptide) [compound 1338] | 2595 |
| 1339 (MCLLTEVGMSLLCEV; epitope peptide) [compound 1339] | 2234 |
| 1340 (MSCLTEVGMSLLCEV; epitope peptide) [compound 1340] | 2341 |
| 1341 (MSLLCEVGMSLLCEV; epitope peptide) [compound 1341] | 2851 |
| 1342 (MSLLTCVGMSLLCEV; epitope peptide) [compound 1342] | 2712 |
| 1343 (CSCLCEVGMSLLCEV; epitope peptide) [compound 1343] | 1945 |
| 1344 (MCLCTCVGMSLLCEV; epitope peptide) [compound 1344] | 2431 |
| 1345 (MSCLCECGMSLLCEV; epitope peptide) [compound 1345] | 1307 |
| 1346 (MCLLTEVGMSLLTCV; epitope peptide) [compound 1346] | 1098 |
| 1347 (MSLLCEVGMSLLTCV; epitope peptide) [compound 1347] | 2784 |

| Substance | Signal (peptides that bind to Z3G1) |
| --- | --- |
| 1348 (MSLCTEVGCSCLCEV; epitope peptide) [compound 1348] | 2001 |
| 1349 (MSLLCEVGCSCLCEV; epitope peptide) [compound 1349] | 2586 |
| 1350 (MSLLCEVGMCLCTCV; epitope peptide) [compound 1350] | 2664 |
| 1351 (MSLLCEVGMSCLCEC; epitope peptide) [compound 1351] | 2492 |
| 1356 (CLLTEVETPCRNE; epitope peptide) [compound 1356] | 1991 |
| 1357 (CLLTEVETCIRNE; epitope peptide) [compound 1357] | 1661 |
| 1358 (CLLTEVECPIRNE; epitope peptide) [compound 1358] | 2326 |
| 1359 (CLLTEVCTPIRNE; epitope peptide) [compound 1359] | 1585 |
| 1360 (CLLCEVETPIRNE; epitope peptide) [compound 1360] | 2314 |
| 1361 (SLLCEVETPIRNC; epitope peptide) [compound 1361] | 2460 |
| 1362 (SLLCEVETPIRCE; epitope peptide) [compound 1362] | 2307 |
| 1363 (SLLCEVETPICNE; epitope peptide) [compound 1363] | 1921 |
| 1364 (SLLCEVETPCRNE; epitope peptide) [compound 1364] | 2035 |
| 1365 (SLLCEVETCIRNE; epitope peptide) [compound 1365] | 2305 |
| 1366 (SLLCEVECPIRNE; epitope peptide) [compound 1366] | 2377 |
| 1367 (SLLCEVCTPIRNE; epitope peptide) [compound 1367] | 2283 |
| 1368 (SLLTEVETPCRNE; epitope peptide) [compound 1368] | 1665 |
| 1369 (SLLTEVETPCRCE; epitope peptide) [compound 1369] | 1546 |
| 1371 (SLLCEVETPIRNE; epitope peptide) [compound 1371] | 2511 |
| 1373 (SLLCEVETPIRNEWGC; epitope peptide) [compound 1373] | 2281 |
| 1374 (SLLTEVETPIRNECGC; epitope peptide) [compound 1374] | 1660 |
| 1375 (SLLTEVETPIRNEWCC; epitope peptide) [compound 1375] | 1813 |

| Substance | Signal (peptides that bind to Z3G1) |
| --- | --- |
| 1381 (CLLTEVETPCRNEWG; epitope peptide) [compound 1381] | 2074 |
| 1382 (CLLTEVETCIRNEWG; epitope peptide) [compound 1382] | 2296 |
| 1383 (CLLTEVECPIRNEWG; epitope peptide) [compound 1383] | 2157 |
| 1384 (CLLCEVETPIRNEWG; epitope peptide) [compound 1384] | 2388 |
| 1386 (SLCCEVETPIRNEWG; epitope peptide) [compound 1386] | 1603 |
| 1387 (SLLCEVETPIRNEWC; epitope peptide) [compound 1387] | 2406 |
| 1388 (SLLCEVETPIRNECG; epitope peptide) [compound 1388] | 2107 |
| 1389 (SLLCEVETPIRNCWG; epitope peptide) [compound 1389] | 2789 |
| 1390 (SLLCEVETPIRCEWG; epitope peptide) [compound 1390] | 2601 |
| 1391 (SLLCEVETPICNEWG; epitope peptide) [compound 1391] | 2536 |
| 1392 (SLLCEVETPCRNEWG; epitope peptide) [compound 1392] | 2465 |
| 1393 (SLLCEVETCIRNEWG; epitope peptide) [compound 1393] | 2531 |
| 1394 (SLLCEVECPIRNEWG; epitope peptide) [compound 1394] | 2529 |
| 1395 (SLLCEVCTPIRNEWG; epitope peptide) [compound 1395] | 2384 |
| 1396 (SLLCEVETPIRNEWG; epitope peptide) [compound 1396] | 2384 |
| 1397 (CLLTEVCTPIRNEWG; epitope peptide) [compound 1397] | 1634 |
| 1398 (SLLTEVETPIRNECC; epitope peptide) [compound 1398] | 1493 |
| 1399 (SLLTEVETPIRNECG; epitope peptide) [compound 1399] | 1545 |
| 1440 (CTEVETPIRNSLLTEVETPCLTEVETPIR; epitope peptide; MISC_FEATURE (1)..(1): C is an attachment site for a CLIP; MISC_FEATURE (10)..(10): N is an attachment site for a CLIP; MISC_FEATURE (11)..(11): S is an attachment site for a CLIP; MISC_FEATURE (29)..(29): R is an attachment site for a CLIP) [compound 1440] | 2705 |
| 1442 (CLTEVETPIRLLTEVETPICLTEVETPIR; epitope peptide; MISC_FEATURE (1)..(1): C is an attachment site for a CLIP; MISC_FEATURE (10)..(10): R is an attachment site for a CLIP; MISC_FEATURE (11)..(11): L is an attachment site for a CLIP; MISC_FEATURE (29)..(29): R is an attachment site for a CLIP) [compound 1442] | 2057 |
| 1443 (CTEVETPIRNLLTEVETPICLTEVETPIR; epitope peptide; MISC_FEATURE (1)..(1): C is an attachment site for a CLIP; MISC_FEATURE (10)..(10): N is an attachment site for a CLIP; MISC_FEATURE (11)..(11): L is an attachment site for a CLIP; MISC_FEATURE (29)..(29): R is an attachment site for a CLIP) [compound 1443] | 2213 |
